Experimental data as given in US7410975B2, “Small molecule toll-like receptor (TLR) antagonists” (Coley Pharmaceutical Group, Inc., priority 2003, dated 2008).
Entries after “also recorded” stand apart in the source; their conditions may differ.

Tests used:
Design in all cases: species or system BALB/c mice
[1] = tested on: TNF-α induction by CpG ODN 2006; experiment: In vivo inhibition of TNF-α induction by CpG ODN 2006 (Example 11); settings: 40 μg intraperitoneal 1 h before 100 μg CpG ODN 2006 s.c.; bled at 1 hr
Protocol: FIG. 5 is a bar graph depicting in vivo inhibition of TNF-α induction (pg/ml) by CpG ODN 2006 following pretreatment with PBS control or a quinoline compound (203-43) or various indicated quinazoline compounds (203-34, 203-49, or 203-51). N=5 for each group.
(§1) BALB/c mice (n=5) were pretreated with intraperitoneal injection of 40 μg quinoline 203-43, quinazoline 203-34, 203-49, or 203-51, or with 100 μl of sterile phosphate buffered saline (PBS) control. One hour after the injection, mice were injected subcutaneously with 100 μg CpG ODN 2006. Animals were bled at 3 hr post injection with CpG ODN 2006 and IP-10 levels in plasma measured by IP-10-specific enzyme-linked immunosorbent assay (ELISA).
Groups of BALB/c mice treated as in Example 10 were also analyzed for TNF-α. Animals were bled at 1 hr post injection with CpG ODN 2006 and TNF-α levels in plasma measured by TNF-α-specific ELISA.

[2] = In vivo toxicity in mice: body weight, mortality, white blood cell differential (Example 9)
Description: FIG. 2 is a pair of graphs depicting results of an in vivo toxicity assay in mice for specific quinoline and quinazoline compounds. […] N=3 for each treatment group.
FIG. 3 is a bar graph depicting total and differential white blood cell counts in mice measured five days after administration of a single intraperitoneal dose of specific quinoline and quinazoline compounds. N=3 for each treatment group.
Female BALB/c mice (n=3 per group) were given a single intraperitoneal bolus injection of CMZ 203-43 (1.0 or 4.0 mg), CMZ 203-34 (1.0 or 4.0 mg) or CMZ 203-49 (1.0 or 4.0 mg) in a volume of 0.2 ml. Compound CMZ 203-43 has the structural formula
Other mice received 10% dimethyl sulfoxide (DMSO) in an identical manner. Animals were weighed immediately prior to injection (day 1) and then daily until day 5. On day 5, blood was collected by cardiac puncture and analyzed for hematological and biochemical parameters. Animals were monitored daily for morbidity and mortality.
All of the mice receiving 4.0 mg CMZ 203-43 group were dead on day 4.
Data for mice treated with 4.0 mg CMZ 203-43 was not available because all these mice were dead before day 5.

[3] = tested on: IP-10 induction by CpG ODN 2006; experiment: In vivo inhibition of IP-10 induction by CpG ODN 2006 (Example 10); settings: 40 μg intraperitoneal 1 h before 100 μg CpG ODN 2006 s.c.; bled at 3 hr
Protocol: FIG. 4 is a bar graph depicting in vivo inhibition of IP-10 induction (pg/ml) by CpG ODN 2006 following pretreatment with PBS control or a quinoline compound (203-43) or various indicated quinazoline compounds (203-34, 203-49, or 203-51). N=5 for each group.
as §1

[4] = 4.0 mg single intraperitoneal injection

In the case of `CN(C)CCNc1cc(-c2ccc(N3CCN(C)CC3)cc2)nc2ccccc12` [CMZ 203-43], the “serum TNF-α concentration versus PBS control” value [1] is reported as “significantly reduced”, the body weight change ([2]; 1.0 mg single intraperitoneal injection, 5 days) is reported as “significant weight loss” and the “white blood cell differential” value ([2]; 1.0 mg single intraperitoneal injection, day 5) is reported as “significant neutrophilia”. For the same compound, the morbidity and mortality [2, 4] was “sick and had to be sacrificed on day 3; also recorded: dead on day 4”, the necropsy finding [2, 4] was “bowel obstruction” and the “serum IP-10 concentration versus PBS control” value [3] was “significantly reduced”.
